Test results as given in the supplement of paper PMC10307832.

Legend:
Experiment in all cases: relative viability (nuclei count vs DMSO), 5 days (fraction); higher = more cells survive
[1] = compound: CC1=C(C(=NN1)C)CC2=C(C3=C(S2)N(C(=O)N(C3=O)C)CC(C)C)C(=O)N4C[C@@H](CO4)O + Nc1ncn([C@H]2C[C@H](O)[C@@H](CO)O2)c(=O)n1 [Decitabine] (partner 2 µM)
Procedure, shortened: (§1)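 After 5 days of treatment, lung cancer cells in 1536-well plates were fixed and stained in a single step (final 0.05% Triton X-100, 1% formaldehyde, 1 ug/ml Hoechst) and their nuclei counted on 4× images. Treatment had been applied by pin tool the day after seeding as one drug alone or as a fixed anchor-drug dose with five library-drug doses (not always all listed) in √10 steps. Relative viability is the nuclei count of treated wells divided by that of vehicle wells, and values are medians of duplicate plates.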

[2] = compound: CC1=C(C(=NN1)C)CC2=C(C3=C(S2)N(C(=O)N(C3=O)C)CC(C)C)C(=O)N4C[C@@H](CO4)O + C[C@@H](Oc1cc(-c2cnn(C3CCNCC3)c2)cnc1N)c1c(Cl)ccc(F)c1Cl [Crizotinib] (partner 1 µM)
Procedure, shortened: as §1

IDH-C35 + Vorinostat = compound: Cc1ccccc1C(C(=O)NC1CCCCC1)N(C(=O)Cn1ccnc1C)c1cccc(F)c1 [IDH-C35] + O=C(CCCCCCC(=O)Nc1ccccc1)NO [Vorinostat] (partner 1 µM)
Procedure, shortened: as §1

IDH-C35 + Tozasertib = compound: Cc1ccccc1C(C(=O)NC1CCCCC1)N(C(=O)Cn1ccnc1C)c1cccc(F)c1 [IDH-C35] + Cc1cc(Nc2cc(N3CCN(C)CC3)nc(Sc3ccc(NC(=O)C4CC4)cc3)n2)n[nH]1 [Tozasertib] (partner 0.1 µM)
Procedure, shortened: as §1

| Cell Line | relative viability ([1]; first compound 0.0025 µM) | relative viability ([1]; first compound 0.007906 µM) | relative viability ([1]; first compound 0.025 µM) | relative viability ([1]; first compound 0.07906 µM) | relative viability ([1]; first compound 0.25 µM) | relative viability ([2]; first compound 0.0025 µM) | relative viability ([2]; first compound 0.007906 µM) | relative viability ([2]; first compound 0.025 µM) | relative viability ([2]; first compound 0.07906 µM) | relative viability ([2]; first compound 0.25 µM) | relative viability (IDH-C35 + Vorinostat; first compound 0.08 µM) | relative viability (IDH-C35 + Vorinostat; first compound 0.253 µM) | relative viability (IDH-C35 + Vorinostat; first compound 0.8 µM) | relative viability (IDH-C35 + Vorinostat; first compound 2.53 µM) | relative viability (IDH-C35 + Vorinostat; first compound 8 µM) | relative viability (IDH-C35 + Tozasertib; first compound 0.08 µM) | relative viability (IDH-C35 + Tozasertib; first compound 0.253 µM) | relative viability (IDH-C35 + Tozasertib; first compound 0.8 µM) | relative viability (IDH-C35 + Tozasertib; first compound 2.53 µM) | relative viability (IDH-C35 + Tozasertib; first compound 8 µM) |
| --- | --- | --- | --- | --- | --- | --- | --- | --- | --- | --- | --- | --- | --- | --- | --- | --- | --- | --- | --- | --- |
| HCC-44 | 0.978 | 0.961 | 0.949 | 0.912 | 1.06 | 0.765 | 0.843 | 0.88 | 0.811 | 0.929 | 1.11 | 1.09 | 1.12 | 1.13 | 1.11 | 1.06 | 0.906 | 1 | 0.903 | 0.96 |
| HCC-827 | 0.216 | 0.34 | 0.323 | 0.408 | 0.302 | 0.96 | 0.965 | 0.924 | 0.929 | 1 | 0.731 | 0.85 | 0.811 | 0.789 | 0.868 | 0.4 | 0.394 | 0.388 | 0.428 | 0.433 |
| NCI-H1623 | – | – | – | – | – | – | – | – | – | – | – | – | – | – | – | 0.414 | 0.423 | 0.464 | 0.452 | 0.431 |
| NCI-H2347 | 0.638 | 0.649 | 0.608 | 0.56 | 0.662 | 0.834 | 0.813 | 0.801 | 0.621 | 0.875 | 0.4 | 0.682 | 0.531 | 0.59 | 0.656 | 0.476 | 0.599 | 0.497 | 0.657 | 0.418 |
| PC-14 | 0.223 | 0.27 | 0.215 | 0.199 | 0.275 | 0.91 | 0.904 | 0.881 | 0.932 | 0.954 | 0.749 | 0.81 | 0.748 | 0.76 | 0.649 | 0.634 | 0.542 | 0.611 | 0.58 | 0.557 |
| NCI-H1651 | 0.519 | 0.699 | 0.538 | 0.579 | 0.567 | 0.807 | 0.857 | 0.822 | 0.804 | 0.786 | 0.539 | 0.592 | 0.531 | 0.513 | 0.543 | 0.696 | 0.737 | 0.643 | 0.632 | 0.683 |
| HARA | 0.578 | 0.578 | 0.653 | 0.581 | 0.524 | 1.09 | 1.19 | 0.915 | 0.987 | 1.04 | 0.624 | 0.436 | 0.517 | – | 0.525 | 0.0971 | 0.135 | 0.104 | – | 0.133 |
| NCI-H1650 | 0.365 | 0.424 | 0.388 | 0.292 | 0.309 | 1.05 | 1.08 | 0.973 | 1.04 | 1.06 | 0.685 | 0.491 | 0.569 | 0.588 | 0.84 | 0.407 | 0.393 | 0.378 | 0.444 | 0.355 |
| NCI-H1395 | 0.801 | 0.68 | 0.707 | 0.763 | 0.694 | – | – | – | – | – | 0.773 | 0.694 | 0.707 | 0.927 | 0.766 | 0.723 | 0.831 | 0.735 | 0.728 | 0.774 |
| LU99A | 0.784 | 0.979 | 0.825 | 0.901 | 0.976 | 0.542 | 0.592 | 0.533 | 0.566 | 0.648 | 0.533 | 0.422 | 0.483 | 0.481 | 0.505 | 0.281 | 0.255 | 0.257 | 0.296 | 0.257 |
| NCI-H1355 | 0.443 | 0.375 | 0.346 | 0.324 | 0.332 | 1.07 | 1.09 | 1.09 | 1.05 | 1.14 | 0.665 | 0.691 | 0.601 | 0.646 | 0.691 | 0.538 | 0.606 | 0.601 | 0.526 | 0.502 |
| HCC-78 | 0.658 | 0.774 | 0.644 | 0.636 | 0.631 | 0.444 | 0.316 | 0.342 | 0.371 | 0.322 | 0.447 | 0.484 | 0.457 | 0.381 | 0.531 | 0.403 | 0.363 | 0.388 | 0.383 | 0.254 |
| NCI-H1563 | – | – | – | – | – | 0.91 | 0.92 | 0.87 | 0.889 | 0.892 | – | – | – | – | – | – | – | – | – | – |
| HCC-15 | 0.707 | 0.621 | 0.692 | 0.662 | 0.781 | 0.826 | 0.71 | 0.781 | 0.757 | 0.947 | 0.796 | 0.857 | 0.877 | – | 0.707 | 0.493 | 0.463 | 0.342 | – | 0.323 |
| EKVX | 0.365 | 0.311 | 0.309 | 0.267 | 0.369 | 1.09 | 1.11 | 0.988 | 0.962 | 0.992 | 0.876 | 0.678 | 0.769 | 0.738 | 0.698 | 0.422 | 0.373 | 0.361 | 0.378 | 0.344 |
| NCI-H2087 | 0.315 | 0.28 | 0.274 | 0.295 | 0.248 | 0.822 | 0.804 | 0.927 | 0.923 | 0.937 | 0.821 | 0.715 | 0.74 | 0.624 | 0.633 | 0.196 | 0.23 | 0.279 | – | 0.264 |
| LK-2 | 0.261 | 0.397 | 0.268 | 0.237 | 0.273 | 0.234 | 0.206 | 0.218 | 0.276 | 0.204 | 0.352 | 0.273 | 0.216 | 0.34 | 0.165 | 0.157 | 0.197 | 0.178 | 0.184 | 0.203 |
| NCI-H1437 | 0.532 | 0.59 | 0.519 | 0.612 | 0.548 | 0.967 | 0.928 | 0.875 | 0.949 | 1.09 | 0.931 | 0.851 | 0.869 | 0.843 | 0.858 | 0.411 | 0.443 | 0.405 | 0.413 | 0.366 |
